# According to ChEMBL document CHEMBL4627363, “S1P1-selective agonist prodrug IMMH002 is phosphorylated in rats to form an S-configured enantiomer: Synthesis, verification, and biological activity of the in vivo active metabolite” (Bioorg Med Chem Lett, 2020):
# Columns and labels:
# [1] = biological target: Sphingosine 1-phosphate receptor 1 (Homo sapiens, UniProt P21453); assay: Agonist activity at S1P1 (unknown origin) by HTRF assay
# [2] = biological target: Sphingosine 1-phosphate receptor 3 (Homo sapiens, UniProt Q99500); assay: Agonist activity at S1PR3 (unknown origin) by HTRF assay
# [3] = species: Homo sapiens; assay: Ratio of EC50 for S1PR3 (unknown origin) to EC50 for S1PR1 (unknown origin)
# Sequence of Sphingosine 1-phosphate receptor 1 (P21453 whole entry): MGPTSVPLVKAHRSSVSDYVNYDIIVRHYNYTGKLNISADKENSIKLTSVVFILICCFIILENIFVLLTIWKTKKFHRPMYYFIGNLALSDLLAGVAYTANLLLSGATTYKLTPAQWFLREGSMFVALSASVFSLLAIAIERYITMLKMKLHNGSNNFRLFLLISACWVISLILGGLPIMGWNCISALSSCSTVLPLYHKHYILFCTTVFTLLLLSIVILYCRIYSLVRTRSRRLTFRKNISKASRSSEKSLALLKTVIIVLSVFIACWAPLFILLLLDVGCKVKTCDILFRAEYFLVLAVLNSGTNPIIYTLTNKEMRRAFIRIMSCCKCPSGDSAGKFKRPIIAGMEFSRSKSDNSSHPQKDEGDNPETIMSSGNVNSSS
# Sequence of Sphingosine 1-phosphate receptor 3 (Q99500 whole entry): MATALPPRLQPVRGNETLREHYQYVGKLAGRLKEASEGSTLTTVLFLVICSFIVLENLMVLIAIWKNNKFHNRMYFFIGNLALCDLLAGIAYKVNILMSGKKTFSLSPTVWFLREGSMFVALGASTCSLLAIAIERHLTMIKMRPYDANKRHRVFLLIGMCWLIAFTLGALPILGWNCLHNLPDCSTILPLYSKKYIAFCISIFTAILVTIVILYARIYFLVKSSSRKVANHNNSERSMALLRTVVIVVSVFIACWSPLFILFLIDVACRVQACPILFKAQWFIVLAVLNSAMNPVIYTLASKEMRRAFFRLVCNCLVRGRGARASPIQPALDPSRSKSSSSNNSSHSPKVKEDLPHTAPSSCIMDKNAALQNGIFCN
EC50 [1],EC50 [2],Ratio EC50 [3],Structure (SMILES)
2.2 nM,380 nM,173,CCc1nc(-c2ccc(-c3ccc(CC[C@](N)(CO)COP(=O)(O)O)cc3)cc2)co1
332 nM,> 10000 nM,,CCc1nc(-c2ccc(-c3ccc(CCC(N)(CO)CO)cc3)cc2)co1
5 nM,523 nM,105,CCc1nc(-c2ccc(-c3ccc(CCC(N)(CO)COP(=O)(O)O)cc3)cc2)co1 (racemic)
469 nM,736 nM,1.6,CCc1nc(-c2ccc(-c3ccc(CC[C@@](N)(CO)COP(=O)(O)O)cc3)cc2)co1
